{"source": "patent US9821042B2", "about": "“Use of antagonists of ghrelin or ghrelin receptor to prevent or treat stress-sensitive psychiatric illness” (Massachusetts Institute of Technology, priority 2012, dated 2017)", "key": {"[1]": {"tested_on": "adult male Long Evans rats", "test": "Auditory fear conditioning after repeated intra-BLA infusions of ghrelin receptor agonist", "assay_type": "in vivo, rat", "conditions": "intra-BLA infusion daily for five days", "description": "Cannulae Implants. Rats were anesthetized with a cocktail of 10 mg/kg acepromazine, […], and 100 mg/kg ketamine (1 ml/kg; i.p.). Rats were mounted into a dual arm stereotaxic frame (Kopf Instruments; Tujunga, Calif.). The rats were then bilaterally implanted with 23-gauge stainless steel guide cannulae aimed 1 mm above the lateral amygdala: A/P −2.0, M/L+/−5.3, D/V −5.4, relative to brain surface and bregma (45). The cannulae were secured by the placement of three jeweler screws in the skull and dental acrylic. Dummy cannulae extending 1 mm past the tip of the guide cannulae were placed into the guide cannula after surgery and changed every other day. Rats received 0.03 mg/kg of Buprenex (1 ml/kg; s.c.) as post-operative pain management every 12 h for at least 24 h and up to 3 days. All rats recovered for a minimum of 5 days before experimentation commenced.\nDrug Infusion. For intra-cranial infusions, rats were placed in 5-gallon buckets containing bedding. The dummy cannulae were removed and injectors (30G stainless steel cannulae; extending 1 mm beyond the cannulae end) were inserted. The injectors were attached to Hamilton syringes (10 ul; Hamilton Co., Reno, Nev.) via polyethylene tubing, and the syringes were mounted in a Harvard syringe pump (Harvard Apparatus; Holliston, Mass.). Infusions were given at a rate of 0.1 ul/m for 5 m for a total volume of 0.5 ul/side, with 1 m for diffusion, before the injectors were removed and new dummy cannulae were inserted.\n(§1) Pavlovian Fear Conditioning.\nFear memory requires plasticity in numerous brain regions but the basolateral complex of the amygdala (BLA) is particularly important for both formation and storage of learned fear."}, "[2]": {"conditions": "cited from earlier work; for crossing of the blood-brain barrier: in vivo"}, "[3]": {"tested_on": "corticosterone", "test": "Plasma corticosterone by ELISA in stressed rats given DLys3", "assay_type": "in vivo, rat", "conditions": "stressed animals, tail bleeds in final 30 m of final stress session", "description": "Rats received either daily handling (NS) or immobilization stress (STR). Each day, a systemic injection of either Dlys3-GHRP-6 (Dlys3), an antagonist of GHSR-1a, or saline (VEH) was administered within 30 m of handling or stress initiation. (a) Animals received auditory fear conditioning 24 h after the last stress or handling session. […] (c) In a subset of animals in the STR group, tail bleeds were performed during the final 30 m of the final stress session and plasma corticosterone levels were measured using ELISA. All data are mean±s.e.m. * p<0.05, ˜p<0.10 in planned comparisons.\n(§2) Hormone Assays. Corticosterone, acylated ghrelin, growth hormone and CRF levels were determined using commercial ELISA kits. For corticosterone, non-acidified plasma was diluted 1:25 in assay buffer 15 (Enzo Life Sciences; Farmingdale, N.Y.). For acylated ghrelin, the acidified sample was used for the active ghrelin ELISA (Millipore; Billerica, Mass.) and processed according to the manufacturer's protocol. […] For growth hormone, brain tissue was homogenized 1:6 in lysis buffer and was assayed as per manufacturer's protocol (Millipore; Billerica, Mass.). For CRF, brain tissue collected by micro-dissection was homogenized 1:30 w/v in lysis buffer and assayed per manufacturer's protocol (Kamiya Biomedical Company, Seattle, Wash.)."}, "[4]": {"target": "GHSR1a (Homo sapiens, UniProt Q92847)", "sequence (Q92847 whole entry)": "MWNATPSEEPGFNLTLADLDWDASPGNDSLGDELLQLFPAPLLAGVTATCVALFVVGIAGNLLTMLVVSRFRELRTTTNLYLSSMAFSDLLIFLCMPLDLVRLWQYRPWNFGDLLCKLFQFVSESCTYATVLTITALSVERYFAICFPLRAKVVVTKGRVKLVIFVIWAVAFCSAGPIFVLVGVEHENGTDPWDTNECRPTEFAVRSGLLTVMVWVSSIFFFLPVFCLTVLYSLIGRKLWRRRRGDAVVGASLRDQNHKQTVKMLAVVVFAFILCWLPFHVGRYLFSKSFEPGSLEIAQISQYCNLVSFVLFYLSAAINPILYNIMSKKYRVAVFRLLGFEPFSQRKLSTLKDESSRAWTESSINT", "conditions": "Tocris Bioscience literature; read-out: IC50 as inhibitor of GHSR1a; cited from earlier work"}, "[5]": {"target": "melanocortin receptors", "conditions": "cited from earlier work"}, "[6]": {"tested_on": "adult male Long Evans rats", "test": "Chronic immobilization stress followed by auditory fear conditioning, ghrelin receptor blockade during stress", "conditions": "for long-term fear memory in stressed rats (stress-enhanced fear): daily systemic injection at start of immobilization stress, 4 h/d 14 d", "experimental": "Drug Preparation. For systemic drug delivery, rats were injected with 1 ml/kg (i.p.) of the appropriate solution. All drugs were solubilized in 0.9% saline (vehicle) such that injection volumes remained constant for each experiment. […] D-Lys3-GHRP-6 (Tocris Biosciences; Minneapolis, Minn.) was diluted to 2.74 ug/ml in vehicle. […] D-Lys3-GHRP-6 was injected within 30 m of the start of immobilization stress or following handling.\nImmobilization Stress. Immobilization stress was administered 4 h per day for 1-14 consecutive days, depending on the experiment. Animals were placed in Decapicone plastic bags (Braintree Scientific; Braintree, Mass.), which were secured at the tail. Stress occurred in a lab room used for no other procedures. All stress sessions were performed between LOAM and 4 PM. Unstressed control rats were handled daily for 30 s. For further parallel control parameters, food was removed from the unstressed rats daily for the same 4 h period in which stressed animals were immobilized and, therefore, without food.\nPavlovian Fear Conditioning. Fear conditioning experiments were conducted in a modified chamber (MED Associates; St. Albans, Vt.) housed in a sound-attenuated cubicle. The animals were placed in individual chambers and infrared video of each session was recorded. Each experiment used auditory fear conditioning wherein rats received 3-5 tone (2 kHz, 85 dB, 10-16s)-footshock (1-2s, 0.4-0.7 mA) pairings in a unique context (metal shock grid floors, chamber fan on, 0.3% PineSol odor, house and room lights on). Animals were allowed 2-3 m to habituate to the chamber before tone-footshock pairings were given at intervals of 1-4 m. Fear memory was tested 24-72 h later by placing the animals in a novel context (white Plexiglas plastic floors, curved Plexiglas wall inserts, fans off, 1% acetic acid odor, house and room lights off). One to 5 m after placement in the novel context, fear to the tone was assessed either by presenting a continuous tone (2 kHz, 85 dB, 8 minutes) or several discrete tones (15 10-16s tones with 1-4 m ISI). Freezing was measured using commercial software (VideoFreeze, MedAssociates, St. Albans, Vt.).\nStatistics. For each fear memory session, conditional freezing was assessed as a percentage of time spent freezing, a probability estimate that is amenable to analysis with parametric statistics. These probability estimates of freezing, along with other measures, were analyzed using ANOVA. Post hoc comparisons in the form of Fisher's PLSD tests were performed after a significant omnibus F-ratio (p<0.05). […] All data where p>0.10 are identified as not significant (ns).\nTo determine whether ghrelin signaling is necessary for stress-related enhancement of fear memory, ghrelin receptor signaling was blocked during repeated stress sessions. […] Twenty-four hours following the final stress or handling session, auditory fear conditioning was administered and fear to the tone was assessed in a subsequent session."}, "[7]": {"tested_on": "adult male Long Evans rats", "test": "Auditory Pavlovian fear conditioning after systemic ghrelin receptor agonist injections in nonstressed rats", "assay_type": "in vivo, rat", "conditions": "for fear memory after a single injection: 1 day of injection, conditioning 24 h later; for long-term fear memory (conditional freezing to the tone): conditioning 24 h after last injection, test 48 h later", "description": "Subjects. All experiments used adult male Long Evans rats (250-350 g, Taconic, Germantown, N.Y.), housed individually (68-72° F.; 12-h light-dark cycle, 7 AM lights on). Food and water (or 0.9% saline for adrenalectomy experiments) was provided ad libitum. Stressed and unstressed animals were housed in separate cubicles. All procedures were in accordance with the US National Institutes of Health (NIH) Guide for the Care and Use of Laboratory Animals and were approved by the MIT Institutional Animal Care and Use Committee and the Animal Care and Use Review Office of the USAMRMC.\nas §1\nTo determine whether increased activation of the ghrelin receptor is sufficient for enhancement of fear memory, experiments were conducted using pharmacological agonism of GHSR-1a in non-stressed animals. […] MK-0677 (MK: 5d) or saline (VEH: 5d) was systemically administered once a day for five consecutive days in nonstressed rats to determine whether repeated ghrelin receptor agonism in the absence of stress is sufficient to increase fear learning and whether HPA hormones may play a role in this effect. […] One subset of animals was administered auditory fear conditioning 24 h after the last injection."}, "[8]": {"tested_on": "adult male Long Evans rats", "test": "Elevated plus maze after systemic MK-0677", "assay_type": "in vivo, rat", "conditions": "5 d systemic injections, single 8 minute session 24 h after last injection", "description": "Rats received a daily systemic injection of MK-0677 (MK: 5d), an agonist of GHSR-1a, or vehicle (VEH: 5d) for five days at the endogenous ghrelin signaling nadir. Spontaneous freezing (a) and locomotion (b) were assessed in a novel context 24 h after the last injection. A separate group was assessed on the elevated plus maze in a single 8 minute session 24 h after the last injection. Total arm entries (c) and open arm time (d) were measured to assess exploratory behavior and innate anxiety, respectively. (e) Animals received Pavlovian fear conditioning 24 h before beginning daily handling injections of MK-0677 (Post FC MK: 5d) or vehicle (Post FC VEH: 5d) for 5d. […] All data are mean±s.e.m.\nElevated Plus Maze. Rats were tested for anxiety using an elevated plus maze (Hamilton Kinder; Poway, Calif.). The maze had two open arms (51 cm×12 cm each) and was located in a moderately lit room. Open arms consisted of black Plexiglas floors and no walls. The closed arms had black Plexiglas walls 40 cm high. […] Automated software (Motor Monitor 4.14) recorded the second by second movements of the animals while the experimenter made observations in an obscured corner. Each session lasted 8 m and both the observer and the software recorded the latency to exit the first arm and the number of entries into the open and closed arms. Additionally, the software recorded time spent in the each region of the maze. […]"}, "[9]": {"tested_on": "CRF", "test": "Brain CRF levels by ELISA after systemic MK-0677", "assay_type": "in vivo, rat", "conditions": "5 d systemic injections, 24 h after final injection", "description": "Rats received daily systemic injections of MK-0677 (MK: 5d), a GHSR-1a agonist, or saline (VEH: 5d) for five days at the endogenous ghrelin signaling nadir. (b) One group underwent auditory fear conditioning 24 h following the final injection. Fear acquisition was assessed by monitoring freezing levels. (c) Conditional freezing to the tone was assessed in a novel context 48 h following fear conditioning. A separate group was sacrificed 24 h following the final injection and microdissections of hypothalamus and amygdala performed. Brain CRF levels were measured using ELISA (d) hypothalamus, (e), basolateral complex of the amygdala). * p<0.05, ** p<0.01, ˜p<0.10 in planned comparisons.\nas §2, with “For CRF, brain tissue collected by micro-dissection was homogenized 1:30 w/v in lysis buffer and assayed per manufacturer's protocol (Kamiya Biomedical Company, Seattle, Wash.).” left out"}, "[10]": {"tested_on": "growth hormone release", "conditions": "dose of 0.5 mg/ml; cited from earlier work"}, "[11]": {"conditions": "systemic injection once a day for 5 days, nonstressed rats"}}, "note": "Read-outs that look alike come from different tables or passages of the source. Non-standard residues stand in square brackets, D forms with d. No end group written: not given here.", "data": [{"compound": "acylated ghrelin: acylated (bioactive) form of the peptide hormone ghrelin, infused into the BLA", "values": [{"measurement": "long-term fear memory", "setting": "[1]; listed as bioactive ghrelin", "result": "replicated"}, {"measurement": "half-life", "setting": "[2]; ref 29", "result": "~30", "unit": "m"}]}, {"compound": "H[dW][dK]W[dF]K-NH2 [D-Lys3-GHRP-6]", "values": [{"measurement": "stress-induced HPA activation as corticosterone secretion", "setting": "[3]", "result": "did not blunt"}, {"measurement": "IC50", "setting": "[4]", "result": 0.9, "unit": "µM"}, {"measurement": "Ki", "setting": "[5]", "result": "26 to 120", "unit": "µM"}, {"measurement": "crossing of the blood-brain barrier", "setting": "[2]", "result": "crosses the blood brain barrier"}, {"measurement": "crossing of the blood-brain barrier", "setting": "[2]; listed as DLys3", "result": "crosses the blood-brain barrier"}, {"measurement": "long-term fear memory in stressed rats (stress-enhanced fear)", "setting": "[6]; listed as DLys3", "result": "completely reversed stress-enhanced fear"}, {"measurement": "long-term fear memory in stressed rats (stress-enhanced fear)", "setting": "[6]; listed as Dlys-3", "result": "sufficient to prevent stress-related enhancement of fear memory"}, {"measurement": "stress enhancement of fear acquisition", "setting": "[6]; daily systemic injection during immobilization stress", "result": "not seen"}, {"measurement": "fear memory in nonstressed controls", "setting": "[6]; daily systemic injection with daily handling", "result": "no effect"}]}, {"compound": "CC(C)(N)C(=O)N[C@H](COCc1ccccc1)C(=O)N1CCC2(CC1)CN(S(C)(=O)=O)c1ccccc12", "note": "[MK-0677]", "values": [{"measurement": "fear memory after a single injection", "setting": "[7]", "result": "trend towards impairment"}, {"measurement": "fear memory after a single injection", "setting": "[7]; listed as MK677", "result": "no effect"}, {"measurement": "expression of previously acquired auditory fear memory", "setting": "[7]; conditioning 24 h before 5 d of injections, test 24 h after last injection", "result": "not affected"}, {"measurement": "fear memory after 3 days of injections", "setting": "[7]; daily injections for 3 days", "result": "no effect"}, {"measurement": "fear memory after a single injection followed by 14 d delay", "setting": "[7]; single injection, 14 d in vivarium before conditioning", "result": "not sufficient to enhance fear"}, {"measurement": "fear acquisition during conditioning (freezing)", "setting": "[7]; [11]", "result": "did not alter"}, {"measurement": "long-term fear memory (conditional freezing to the tone)", "setting": "[7]; [11]", "result": "significantly enhanced"}, {"measurement": "long-term fear memory (conditional freezing to the tone)", "setting": "[7]; systemic injection once a day for 5 days, nonstressed rats, listed as MK677", "result": "increased fear memory"}, {"measurement": "innate anxiety (open arm time)", "setting": "[8]", "result": "not altered"}, {"measurement": "amygdalar CRF level", "setting": "[9]", "result": "trend for repeated ghrelin receptor activation to decrease"}, {"measurement": "hypothalamic CRF level", "setting": "[9]", "result": "no change"}, {"measurement": "freezing during fear conditioning", "setting": "[1]", "result": "not altered"}, {"measurement": "long-term fear memory", "setting": "[1]", "result": "significantly enhanced"}, {"measurement": "long-term fear memory", "setting": "[1]; listed as MK677", "result": "sufficient to enhance fear memory"}, {"measurement": "crossing of the blood-brain barrier", "setting": "[2]", "result": "readily crosses the blood-brain barrier"}, {"measurement": "half-life", "setting": "[2]; ref 30", "result": "5 to 6", "unit": "h"}, {"measurement": "half-life", "setting": "[2]; refs 47, 48", "result": "over six"}, {"measurement": "growth hormone release", "setting": "[10]", "result": "significant and prolonged increases"}, {"measurement": "tolerability", "setting": "[10]", "result": "well-tolerated"}]}]}
